Patent publication US5705533A, “10-thio-substituted 1,8-dihydroxy-9 (10H) -anthracenone pharmaceuticals” (Teva Pharmaceutical Industries Ltd., priority 1995, dated 1998)
Read-outs that look alike come from different tables or passages of the source.

Key:
5-LO = target: T1, 5-LO (Bos taurus, UniProt F1MQ78); test: Bovine PMNL 5-Lipoxygenase Assay (inhibition of 5-HETE and LTB4 biosynthesis); format: cell-based; details: for inhibition at 30 µM: PMNL, read-out: 5-LO percent inhibition
T1 construct: Polymorphonuclear leukocytes (PMNL) were prepared from sodium EDTA-anticoagulated bovine blood; endogenous in cells; host or cells: bovine polymorphonuclear leukocytes isolated from EDTA-anticoagulated blood (intact cells, A23187-stimulated)
T1 sequence (F1MQ78 1-674): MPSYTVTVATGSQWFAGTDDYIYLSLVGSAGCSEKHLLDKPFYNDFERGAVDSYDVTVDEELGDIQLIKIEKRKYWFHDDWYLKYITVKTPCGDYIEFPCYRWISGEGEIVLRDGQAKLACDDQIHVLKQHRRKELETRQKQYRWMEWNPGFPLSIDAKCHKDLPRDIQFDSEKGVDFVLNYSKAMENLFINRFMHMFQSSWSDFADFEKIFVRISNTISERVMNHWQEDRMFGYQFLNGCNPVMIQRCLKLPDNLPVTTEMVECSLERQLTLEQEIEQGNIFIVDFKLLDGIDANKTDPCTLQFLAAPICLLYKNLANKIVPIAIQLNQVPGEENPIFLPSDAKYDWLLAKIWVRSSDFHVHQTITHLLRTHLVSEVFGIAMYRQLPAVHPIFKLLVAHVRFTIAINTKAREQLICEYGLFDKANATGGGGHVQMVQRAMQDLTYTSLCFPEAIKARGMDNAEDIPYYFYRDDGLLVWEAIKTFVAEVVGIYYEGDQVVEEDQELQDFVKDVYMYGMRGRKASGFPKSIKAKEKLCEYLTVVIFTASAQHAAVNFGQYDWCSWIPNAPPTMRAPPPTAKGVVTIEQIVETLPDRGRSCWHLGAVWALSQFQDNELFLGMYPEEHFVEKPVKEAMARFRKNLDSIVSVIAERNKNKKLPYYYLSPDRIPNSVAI
Experimental: Polymorphonuclear leukocytes (PMNL) were prepared from sodium EDTA-anticoagulated bovine blood, essentially as described by Walstra, P. et al., "Leukotriene Formation by Bovine Polymorphonuclear Leukocytes", Biochim. Biophys. Acta, 795,499-503 (1984). Contaminating platelets were removed by repeated centrifugations at 100 g for 20 min. The purified PMN leukocytes were suspended at a concentration of 1×10^7 cells/ml in phosphate buffered saline (PBS, composed of 8.00 g NaCl, 0.20 g KCl, 1.00 g Na2 HPO4 .cndot.2H2 O, 0.15 g NaH2 PO4 .cndot.H2 O, 0.20 g KH2 PO4, adjusted to pH 7.4 with 3 N NH3 in a final volume of 1000 ml of double distilled H2 O). Cell counts were conducted with a Sysmex microcellcounter CC-130. Preincubation was performed with 2.4 ml of the suspension and 10 μl of a DMSO stock solution of each test compound at the desired concentration in PBS or vehicle control (DMSO at final concentration of 0.4%) for 15 min at 37° C. in a shaking water bath. The syntheses of LTB 4 and 5-HETE were stimulated by the addition of CaCl2 and Ca-ionophore A23187 (final concentrations 2 mM and 20 μM, respectively), and the incubation was conducted for 10 min at 37° C. 5-LO product formation was terminated by the addition of 3.0 ml of methanol/acetonitrile (1+1) containing NDGA as radical scavenger (final concentration 0.01 mM) and prostaglandin B2 PG B2 as chromatographic marker (final concentration 0.3 μM). The incubation mixture was kept in an ice bath for 20 min and then centrifuged at 4000 g for 5 min at 0° C. The supernatant was diluted with 5 ml of water and passed through a prewashed (10 ml of methanol and 5 ml of water, sequentially) octadecylsilane reversed phase cartridge (Baker). The eicosanoids were eluted with 3 ml of methanol, diluted with 3 ml of water and subjected to reversed phase high performance liquid chrometography (HPLC) analysis, performed on a 250×4 mm column packed with Nucleosil C18 (7 μm particles; Bischoff, Leonberg, Germany). The isocratic elution conditions of LTB4 were tetrahydrofuran (THF)/methanol/water/acetic acid (25+30+45+0.1), adjusted to pH 5.5 with concentrated NH3, at a flow rate of 0.9 ml/min (Kontron 420 pump), monitored at 280 nm with a Kontron 735 LC UV detector, whereas 5-HETE was monitored at 232 nm using methanol/water/acetic acid (77+23+0.1), pH 5.5,flow rate 1.0ml/min. Data were recorded on a MacLab data acquisition system (WissTech, Germany) and analysis was performed with the application Peaks on an Apple Macintosh Quadra 700 computer. Integrated areas of the peaks were compared to the PGB2 internal standard and to external standards of test samples. Molar absorption coefficients of Samuelsson et al., Borgeat, P. and B. Samuelsson, "Arachidonic Acid Metabolism in Polymorphonuclear Leukocytes: Effects of Ionophore A23187", Proc. Nat. Acad. Sci. USA, 76, 2148-2152 (1979), were used for calculations. Inhibition was calculated by comparison of the mean values of test compound (n=3) with control (n=6-8) activity: (1-test compound/control)×100.
By the above method, the anthracenone derivatives of the invention were evaluated for their ability to inhibit the production of LTB4 and 5-HETE in isolated bovine polymorphonuclear leucocytes (PMNL), see Walstra, P. et al., "Leukotriene Formation by Bovine Polymorphonuclear Leukocytes", Biochim. Biophys. Acta, 795,499-503 (1984); Dannhardt, G. and also M. Lehr, "In-Vitro Evaluation of 5-Lipoxygenase and Cyclo-Oxygenase Inhibitors Using Bovine Neutrophils and Platelets and HPLC", J. Pharm. Pharmacol., 44, 419-424 (1992). LTB4 and 5-HETE concentrations were measured by reversed-phase HPLC with UV detection.

HaCaT cells = test: Antiproliferative Activity Assay, HaCaT cell growth; format: cell-based, human; details: 48 h
Experimental: HaCaT cells, a rapidly multiplying human keratinocyte cell line, were grown in Dulbecco's modified Eagle medium (DMEM), No. 041-11965A, Gibco) supplemented with 10% fetal calf serum, penicillin (100U/ml), streptomycin (100 μg/ml) in a humidified incubator containing 8% CO2 at 37° C. Cells ([…] /1.1 ml suspension per well) were seeded on 24-wells-multidishes and grown in DMEM. After 24 hours growth the medium was replaced with fresh medium and the test compounds (0.1-5 μM) were added. […] Controls were performed with DMSO or with medium alone. Forty-eight hours after addition of the test compound to the culture, the medium was removed and each well was rinsed with 100 μL PBS. The cells were then incubated with sterile 0.5% trypsin, 0.2% EDTA in PBS for 20 minutes at 37° C. The detached cells from each well were suspended in DMEM and dispersed into single cells by gentle pipetting through an Eppendorf pipette, and cell growth was determined directly by counting the keratinocytes in a Neubauer counting chamber using phase contrast microscopy. Inhibition was calculated by comparison of the mean values of the test compound (N=3) with the control (N=6-8) activity: (1-test compound/control)×100.

[1] = therapeutic application; cited from earlier work
[2] = system: LTB4 production in bovine neutrophils; details: read-out: Inhibition of production of LTB4, IC50; cited from earlier work
[3] = system: LTB4 production in human neutrophils; details: depending on cell density, read-out: Inhibition of production of LTB4, IC50; cited from earlier work
[4] = Unna 1916; cited from earlier work
[5] = Homo sapiens, HaCaT, HaCaT cells, N = 3, read-out: AA IC50 (antiproliferative activity)
[6] = HaCaT cells, N = 3, read-out: AA IC50 (antiproliferative activity)

## CCCCOC(=O)CSC1c2cccc(O)c2C(=O)c2c(O)cccc21 [Compound 3a]
5-LO
  inhibition at 30 µM: 8%
HaCaT cells; [5]
  IC50: 2100 nM

## CCCCOC(=O)CCSC1c2cccc(O)c2C(=O)c2c(O)cccc21 [Compound 3e]
5-LO
  inhibition at 30 µM: 62%
HaCaT cells; [5]
  IC50: 2300 nM

## CC(SC1c2cccc(O)c2C(=O)c2c(O)cccc21)C(=O)O (centres unmarked) [Compound 3b]
5-LO
  inhibition at 30 µM: 28%
HaCaT cells; [5]
  IC50: 200 nM

## COC(=O)CSC1c2cccc(O)c2C(=O)c2c(O)cccc21 [3-A, reference compound]
5-LO
  IC50: 13000 nM
HaCaT cells; [5]
  IC50: 190000 nM

## Nc1ccccc1SC1c2cccc(O)c2C(=O)c2c(O)cccc21 [Compound 3l]
5-LO; read-out: 5-LO IC50
  IC50: 2400 nM
HaCaT cells; HaCaT cells, N = 3, listed as 31, read-out: AA IC50 (antiproliferative activity)
  IC50: ≤ 100 nM
HaCaT cells; [5]
  IC50: 100 nM

## O=C1c2c(O)cccc2Cc2cccc(O)c21 [anthralin, 1,8-dihydroxy-9(10H)-anthracenone]
5-LO; read-out: 5-LO IC50
  IC50: 37000 nM
HaCaT cells; [5]
  IC50: 600 nM
[1]
  Irritation / side effects: non-affected skin surrounding a psoriatic lesion to which anthralin is applied frequently becomes irritated
[2]
  IC50: 37000 nM
[3]
  IC50: 7000 to 74000 nM
[4]
  Therapeutic effect in psoriasis: effective in the treatment of psoriasis

## O=C1c2c(O)cccc2C(SCCCS)c2cccc(O)c21 [Compound 3f]
5-LO
  inhibition at 30 µM: 14%
HaCaT cells; [5]
  IC50: 770 nM

## CCOC(=O)CCSC1c2cccc(O)c2C(=O)c2c(O)cccc21 [Compound 3d]
5-LO
  inhibition at 30 µM: 30%
HaCaT cells; [5]
  IC50: 1600 nM

## COc1ccccc1SC1c2cccc(O)c2C(=O)c2c(O)cccc21 [Compound 3i]
5-LO; read-out: 5-LO IC50
  IC50: 6300 nM
HaCaT cells; [5]
  IC50: 4250 nM

## CCCC(=O)C1c2cccc(O)c2C(=O)c2c(O)cccc21 [butantrone, 10-Butyryl-Dithranol]
[1]
  Irritation / side effects: elicits a widespread and delayed irritation effect in many patients

## O=C1c2c(O)cccc2C(Sc2ccccc2S)c2cccc(O)c21 [Compound 4c]
HaCaT cells; [6]
  IC50: ≤ 100 nM
HaCaT cells; [5]
  IC50: 100 nM

## CCOC(=O)CSC1c2cccc(O)c2C(=O)c2c(O)cccc21 [3-B, reference compound]
5-LO
  inhibition at 30 µM: 42%
HaCaT cells; [5]
  IC50: 4520 nM

## O=C1c2ccccc2Cc2cccc(O)c21 [1-hydroxy-9(10H)-anthracenone]
[4]
  Therapeutic effect in psoriasis: effective in the treatment of psoriasis

## COc1ccc(SC2c3cccc(O)c3C(=O)c3c(O)cccc32)cc1 [Compound 3k]
5-LO; read-out: 5-LO IC50
  IC50: 3200 nM
HaCaT cells; [5]
  IC50: 1690 nM

## COc1cccc(SC2c3cccc(O)c3C(=O)c3c(O)cccc32)c1 [Compound 3j]
5-LO
  inhibition at 30 µM: 100%
HaCaT cells; [5]
  IC50: 1800 nM

## Nc1cccc(SC2c3cccc(O)c3C(=O)c3c(O)cccc32)c1 [Compound 3m]
5-LO; read-out: 5-LO IC50
  IC50: 2400 nM
HaCaT cells; [5]
  IC50: 1900 nM

## O=C1c2c(O)cccc2C(Sc2cccc(S)c2)c2cccc(O)c21 [Compound 4d]
HaCaT cells; [5]
  IC50: > 5000 nM

## O=C1c2c(O)cccc2C(SCc2ccccc2)c2cccc(O)c21 [4A, reference compound]
5-LO
  inhibition at 30 µM: 46%
HaCaT cells; Homo sapiens, HaCaT, read-out: AA IC50 (antiproliferative activity)
  IC50: 1400 nM

## Nc1ccc(SC2c3cccc(O)c3C(=O)c3c(O)cccc32)cc1 [Compound 3n]
5-LO; read-out: 5-LO IC50
  IC50: 7500 nM
HaCaT cells; [5]
  IC50: 900 nM

## O=C1c2c(O)cccc2C(Sc2ccc(O)cc2)c2cccc(O)c21 [Compound 4b, 1,8-Dihydroxy-10-[(4-hydroxyphenyl)thio]-9(10H)-anthracenone]
5-LO; read-out: 5-LO IC50
  IC50: 2400 nM
HaCaT cells; [6]
  IC50: ≤ 100 nM
HaCaT cells; [5]
  IC50: < 100 nM

## O=C1c2c(O)cccc2C(Sc2ccccc2O)c2cccc(O)c21 [Compound 4a]
5-LO; read-out: 5-LO IC50
  IC50: 5000 nM
HaCaT cells; [5]
  IC50: 1750 nM

## COC(=O)CCSC1c2cccc(O)c2C(=O)c2c(O)cccc21 [Compound 3c]
5-LO; read-out: 5-LO IC50
  IC50: 15000 nM
HaCaT cells; [5]
  IC50: 1100 nM
